Activity calls are given as the source filed them. No cut-off for these calls is given here.

The source of these data is ChEMBL document CHEMBL3632570, “Structure-Guided Design of Novel l-Cysteine Derivatives as Potent KSP Inhibitors” (ACS Med Chem Lett, 2015).

The target in experiment [1] is T1, Kinesin-like protein KIF11 (Homo sapiens, UniProt P52732).
T1 sequence (P52732 whole entry): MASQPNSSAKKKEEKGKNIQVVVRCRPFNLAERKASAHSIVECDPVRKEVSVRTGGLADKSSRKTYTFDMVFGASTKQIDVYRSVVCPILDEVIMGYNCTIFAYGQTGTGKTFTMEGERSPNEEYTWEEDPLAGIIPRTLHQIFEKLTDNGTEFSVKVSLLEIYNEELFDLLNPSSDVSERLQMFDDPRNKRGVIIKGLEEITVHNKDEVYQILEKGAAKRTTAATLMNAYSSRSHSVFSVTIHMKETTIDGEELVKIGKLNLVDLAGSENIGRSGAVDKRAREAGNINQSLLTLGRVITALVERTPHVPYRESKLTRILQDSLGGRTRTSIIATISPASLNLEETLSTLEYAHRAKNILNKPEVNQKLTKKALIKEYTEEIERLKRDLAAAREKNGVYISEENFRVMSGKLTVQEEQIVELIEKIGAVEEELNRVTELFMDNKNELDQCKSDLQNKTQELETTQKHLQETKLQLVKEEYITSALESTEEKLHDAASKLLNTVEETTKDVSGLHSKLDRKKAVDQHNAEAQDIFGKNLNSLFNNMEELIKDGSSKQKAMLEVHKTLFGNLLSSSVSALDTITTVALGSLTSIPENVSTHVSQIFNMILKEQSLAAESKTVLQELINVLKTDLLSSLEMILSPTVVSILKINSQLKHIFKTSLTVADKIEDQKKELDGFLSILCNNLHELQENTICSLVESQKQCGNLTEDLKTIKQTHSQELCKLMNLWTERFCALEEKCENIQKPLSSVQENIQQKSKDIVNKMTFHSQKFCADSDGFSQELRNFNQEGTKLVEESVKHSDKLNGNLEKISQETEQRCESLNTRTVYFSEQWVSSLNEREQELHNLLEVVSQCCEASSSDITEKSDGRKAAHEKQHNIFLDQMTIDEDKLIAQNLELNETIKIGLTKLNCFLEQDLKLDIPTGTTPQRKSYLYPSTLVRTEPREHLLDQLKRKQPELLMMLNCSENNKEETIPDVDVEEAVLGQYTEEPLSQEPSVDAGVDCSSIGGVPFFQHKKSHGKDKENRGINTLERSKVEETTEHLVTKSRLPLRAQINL
Kind of experiment: Inhibition of His-tagged KSP motor domain (1 to 369) (unknown origin) assessed as inhibition of microtubule-stimulated KSP ATPase activity preincuabted for 30 mins followed by ATP addition measured after 15 mins by Kinase-Glo assay. A general note: In Kinase-Glo more light means more ATP remaining.

For experiment [2], the system named is HCT-116. Briefly: Antitumor activity against human HCT116 cells xenografted in athymic nude BALB/cAJcL mouse assessed as inhibition of tumor growth at 25 mg/kg, iv administered on days 1,3,5,8,10 and 12 measured on day 15. The class given is functional. Background: Xenograft models place foreign cells or tissue in a host animal.
Experiment [3] concerns the target T2, Kinesin-like protein KIF15 (Homo sapiens) (UniProt Q9NS87).
T2 sequence (whole entry): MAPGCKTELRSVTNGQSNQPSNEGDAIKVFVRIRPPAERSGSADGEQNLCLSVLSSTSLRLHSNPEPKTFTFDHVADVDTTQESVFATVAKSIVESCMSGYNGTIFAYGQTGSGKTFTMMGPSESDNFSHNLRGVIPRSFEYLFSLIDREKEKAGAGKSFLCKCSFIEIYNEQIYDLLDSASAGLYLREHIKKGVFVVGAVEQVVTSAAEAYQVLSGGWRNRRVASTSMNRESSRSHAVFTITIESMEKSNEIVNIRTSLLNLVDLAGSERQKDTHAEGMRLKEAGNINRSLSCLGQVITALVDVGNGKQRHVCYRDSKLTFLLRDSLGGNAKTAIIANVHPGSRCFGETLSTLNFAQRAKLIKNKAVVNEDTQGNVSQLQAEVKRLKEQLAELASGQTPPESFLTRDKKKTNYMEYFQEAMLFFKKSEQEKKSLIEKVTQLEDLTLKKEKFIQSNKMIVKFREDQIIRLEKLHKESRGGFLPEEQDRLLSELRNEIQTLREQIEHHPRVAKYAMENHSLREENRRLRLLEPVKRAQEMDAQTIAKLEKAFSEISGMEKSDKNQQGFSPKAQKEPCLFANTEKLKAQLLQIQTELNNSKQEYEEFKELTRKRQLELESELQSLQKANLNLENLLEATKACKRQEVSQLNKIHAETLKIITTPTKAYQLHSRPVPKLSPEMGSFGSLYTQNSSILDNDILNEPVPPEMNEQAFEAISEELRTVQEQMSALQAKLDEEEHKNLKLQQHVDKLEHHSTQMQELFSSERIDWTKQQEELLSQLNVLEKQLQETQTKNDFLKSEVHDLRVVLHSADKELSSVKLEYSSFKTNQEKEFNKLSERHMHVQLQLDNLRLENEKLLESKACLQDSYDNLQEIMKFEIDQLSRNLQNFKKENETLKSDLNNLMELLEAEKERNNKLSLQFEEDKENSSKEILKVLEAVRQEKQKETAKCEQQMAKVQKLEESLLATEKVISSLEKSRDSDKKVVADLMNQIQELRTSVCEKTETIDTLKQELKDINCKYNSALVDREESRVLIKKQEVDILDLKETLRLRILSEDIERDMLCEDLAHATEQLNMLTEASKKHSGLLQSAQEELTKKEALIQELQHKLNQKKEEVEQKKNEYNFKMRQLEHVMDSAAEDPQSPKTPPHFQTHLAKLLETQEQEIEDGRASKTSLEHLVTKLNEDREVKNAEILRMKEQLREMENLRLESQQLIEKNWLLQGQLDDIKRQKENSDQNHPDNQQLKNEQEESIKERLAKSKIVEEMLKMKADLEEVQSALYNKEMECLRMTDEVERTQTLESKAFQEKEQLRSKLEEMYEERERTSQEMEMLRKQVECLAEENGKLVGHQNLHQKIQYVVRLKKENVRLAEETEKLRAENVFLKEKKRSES
Kind of experiment: Inhibition of microtubule-stimulated KIF15 motor domain (1 to 372) (unknown origin) ATPase activity at 6.3 uM.

In experiment [4] the test system is HCT-116. Briefly: Growth inhibition of human HCT116 cells after 72 hrs by MTS assay. Conditions: HCT-116, 72 h. The class given is functional, cell-based. A general note: Formazan colour is commonly taken as a measure of viable cells.

One may read the IC50 as the concentration at which inhibition is half-maximal. In general, T/C refers to the ratio of treated to control. As for `COc1ccc(C2(SC[C@H](N)C(=O)O)c3ccccc3CCc3ccccc32)cc1`, the IC50 in experiment [1] turned out to be 14 nM; in experiment [4], 28 nM. Further, the T/C in experiment [2] worked out at 26%. Moreover, the inhibition entry in experiment [3] was “inactive”.

Regarding `N[C@@H](CSC1(c2ccc(C(F)(F)F)cc2)c2ccccc2CCc2ccccc21)C(=O)O`, the IC50 was 21 nM in experiment [1] and 11 nM in experiment [4]. For the same compound, in experiment [2], the T/C came out at 21%. In addition, the inhibition entry in experiment [3] was “inactive”.
